This is an account of results in ChEMBL document CHEMBL1144001, “Synthesis and GABA(A) receptor activity of oxygen-bridged neurosteroid analogs” (Bioorg Med Chem, 2008).

Structures are written as SMILES.

The experiment in a line: Displacement of [3H]TBOB from GABAA receptor in Sprague-Dawley rat cerebral cortex. It counts as tissue-based. On the technique in general: In a radioligand displacement assay an active substance lowers the binding of a labelled ligand.
As a reminder, the IC50 is the point on the concentration scale where inhibition reaches its midpoint. Regarding `CC(=O)[C@H]1CC[C@H]2[C@@H]3CC[C@@H]4C[C@H](O)CC[C@]4(C)[C@H]3CC[C@]12C` [ELTANOLONE], the IC50 amounted to 0.83 µM.
The result for `CC(=O)[C@H]1CC[C@H]2[C@@H]3CC[C@H]4C[C@H](O)CC[C@]4(C)[C@H]3CC[C@]12C` [BREXANOLONE] reads 0.329 µM; that for `CC(=O)[C@H]1CC[C@H]2[C@@H]3CCC4=C[C@H](O)CC[C@@]45CO[C@@H](C[C@]12C)[C@@H]35`, 0.518 µM.
`CC(=O)[C@H]1CC[C@H]2[C@@H]3CC[C@H]4C[C@H](O)C[C@H]5O[C@H](C[C@]12C)[C@@H]3[C@]45C` displayed an IC50 of 0.741 µM.
The result for `CC(=O)[C@H]1CC[C@H]2[C@@H]3CC[C@@H]4C[C@H](O)C[C@@H]5O[C@H](C[C@]12C)[C@@H]3[C@]45C` reads 0.42 µM.
